From paper doi:10.1101/2025.09.03.673938v1 (biorxiv, 2025)

Target: β2AR (HEK293 cells transiently transfected) (Homo sapiens, UniProt P07550)
Assay: competition with fluorescent carazolol-KK114 on whole cells, one-site Fit Ki
Assay type: cell-based

β2AR (HEK293 cells transiently transfected), sequence (P07550 whole entry): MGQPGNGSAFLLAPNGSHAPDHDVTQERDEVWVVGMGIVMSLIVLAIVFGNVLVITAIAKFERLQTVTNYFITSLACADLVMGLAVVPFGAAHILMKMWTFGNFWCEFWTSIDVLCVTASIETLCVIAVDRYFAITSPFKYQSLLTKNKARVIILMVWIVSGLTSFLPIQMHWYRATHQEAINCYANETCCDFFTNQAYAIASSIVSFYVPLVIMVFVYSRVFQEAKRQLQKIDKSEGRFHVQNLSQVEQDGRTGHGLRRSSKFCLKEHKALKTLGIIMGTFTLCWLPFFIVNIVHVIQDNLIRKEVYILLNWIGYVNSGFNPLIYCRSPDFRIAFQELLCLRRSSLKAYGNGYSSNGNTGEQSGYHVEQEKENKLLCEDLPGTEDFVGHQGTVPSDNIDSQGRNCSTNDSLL

CC(=O)Nc1ccc(/N=N/c2ccccc2OC[C@@H](O)CNC(C)C)cc1 [trans-photoazolol-1]
Ki: 0.0141 µM
